ChEMBL document CHEMBL1131503, “Design and synthesis of enantiomers of 3,5-dinitro-o-tyrosine: alpha-amino-3-hydroxy-5-methyl-4-isoxazolepropanoic acid (AMPA) receptor antagonists” (J Med Chem, 1998)

Target: Glutamate receptor ionotropic, AMPA (Rattus norvegicus) (UniProt P19491+P19492+P19493+P19490)
Assay: The compound was tested for the % displacement of [3H]AMPA binding to Ionotropic glutamate receptor AMPA in rat brain membranes at a concentration of 100 uM
Assay type: cell membranes

Structure (SMILES)	Displacement [%]
COc1c(CC(N)C(=O)O)cc([N+](=O)[O-])cc1[N+](=O)[O-] (centres undefined)	66
NC(Cc1cc([N+](=O)[O-])cc([N+](=O)[O-])c1O)C(=O)O (centres undefined)	76
CC(C)(C)OC(=O)NC(Cc1cc([N+](=O)[O-])cc([N+](=O)[O-])c1O)C(=O)O (centres undefined)	17
N[C@@H](Cc1cc([N+](=O)[O-])cc([N+](=O)[O-])c1O)C(=O)O	78
N[C@H](Cc1cc([N+](=O)[O-])cc([N+](=O)[O-])c1O)C(=O)O	58
CC(=O)NC(Cc1cc([N+](=O)[O-])cc([N+](=O)[O-])c1O)C(=O)O (centres undefined)	14
COc1c(CC(NC(=O)OC(C)(C)C)C(=O)O)cc([N+](=O)[O-])cc1[N+](=O)[O-] (centres undefined)	26
NC(Cc1ccccc1OCC(=O)O)C(=O)O (centres undefined)	20
O=[N+]([O-])c1cc2nc(O)c(O)nc2cc1[N+](=O)[O-]	99
